Experiment [1] concerns MCF7. Kind of experiment: Cytotoxicity against human MCF7 cells. The experiment is classed as functional, cell-based.
Experiment [2] addresses Carbonic anhydrase 4 (Homo sapiens, UniProt P22748). Kind of experiment: Inhibition of human CA4 by stopped-flow assay.
Experiment [3] deals with Carbonic anhydrase 9 (Homo sapiens, UniProt Q16790).
Description: Inhibition of human CA9 by stopped-flow assay
In experiment [4] the test system is Oryctolagus cuniculus. In words: Antiglaucoma activity in rabbit assessed as reduction in intraocular pressure administered topically measured upto 6 hrs. Type of experiment: functional, organism-based. Conditions: time hrs <=6.
Experiment [5] concerns HT-29. In words: Down regulation of CA12 expression in human HT-29 cells at […] by western blot analysis. The experiment is classed as functional, cell-based. (Immunoblotting shows a protein as a band on a membrane.)
For experiment [6], the system named is HT-29. Kind of experiment: Down regulation of CA9 expression in human HT-29 cells at […] by western blot analysis. Type of experiment: functional, cell-based.
For experiment [7], the system named is MDA-MB-231. In words: Induction of apoptosis in human MDA-MB-231 cells assessed as late apoptotic cells at IC50 by flow cytometry analysis (reference value: 0.26 %). Type of experiment: functional.
In experiment [8] the test system is MDA-MB-231. Kind of experiment: Induction of cell cycle arrest in human MDA-MB-231 cells assessed as increase in sub-G1 accumulation at IC50 by flow cytometry analysis. Type of experiment: functional, cell-based. Background: In flow cytometry, cells or beads pass a laser one at a time.
Experiment [9] relates to MDA-MB-231. Kind of experiment: Induction of apoptosis in human MDA-MB-231 cells assessed as early apoptotic cells at IC50 by flow cytometry analysis (reference value: 0.77 %). Type of experiment: functional.
Experiment [10] deals with MDA-MB-231. Kind of experiment: Induction of cell cycle arrest in human MDA-MB-231 cells assessed as […] in G2/M accumulation at IC50 by flow cytometry analysis. The experiment is classed as functional, cell-based.
The subject of experiment [11] is MDA-MB-231. In words: Induction of apoptosis in human MDA-MB-231 cells assessed as necrotic cells at IC50 by flow cytometry analysis (reference value: 0.51 %). The experiment is classed as functional.
Experiment [12] concerns the target Carbonic anhydrase 2 (Homo sapiens, UniProt P00918).
Description: Inhibition of human CA2 by stopped-flow assay
The target in experiment [13] is Carbonic anhydrase 1 (Homo sapiens, UniProt P00915).
Chain of Carbonic anhydrase 1 (P00915 whole entry): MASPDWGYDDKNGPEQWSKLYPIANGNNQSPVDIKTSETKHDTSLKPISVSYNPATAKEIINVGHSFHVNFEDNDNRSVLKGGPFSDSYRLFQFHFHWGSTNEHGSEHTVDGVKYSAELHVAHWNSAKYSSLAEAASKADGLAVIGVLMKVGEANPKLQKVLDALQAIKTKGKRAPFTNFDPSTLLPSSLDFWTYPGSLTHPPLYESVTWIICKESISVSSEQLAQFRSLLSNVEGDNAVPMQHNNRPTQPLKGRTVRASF
Description: Inhibition of human CA1 by stopped-flow assay
For experiment [14], the target named is Mitogen-activated protein kinase 14 (Homo sapiens, UniProt Q16539). In words: Inhibition of p38alphaMAPK (unknown origin).
Chain of Mitogen-activated protein kinase 14 (Q16539 whole entry): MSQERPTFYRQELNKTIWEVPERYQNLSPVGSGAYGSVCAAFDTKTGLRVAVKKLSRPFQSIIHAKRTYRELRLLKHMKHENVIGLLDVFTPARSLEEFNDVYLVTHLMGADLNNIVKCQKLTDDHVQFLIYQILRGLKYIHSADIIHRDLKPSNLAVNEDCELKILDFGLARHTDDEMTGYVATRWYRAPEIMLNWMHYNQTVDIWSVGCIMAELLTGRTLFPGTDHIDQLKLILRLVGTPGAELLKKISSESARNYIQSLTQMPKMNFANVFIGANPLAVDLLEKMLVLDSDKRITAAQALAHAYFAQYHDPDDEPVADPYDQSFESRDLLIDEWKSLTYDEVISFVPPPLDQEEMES

Calls of active or inactive are those of the source. No cut-off for these calls is given here.

Our source for the IC50, Ki and Activity values is ChEMBL document CHEMBL4819110, “Developments of small molecules as inhibitors for carbonic anhydrase isoforms” (Bioorg Med Chem, 2021).

As usually defined, the IC50 is the concentration needed to halve the response being measured. Read a low IC50 as greater potency. Broadly, the Ki is the equilibrium dissociation constant of an inhibitor or competing ligand from its target. A high value points to weaker binding.

Chain of Carbonic anhydrase 4 (P22748 whole entry): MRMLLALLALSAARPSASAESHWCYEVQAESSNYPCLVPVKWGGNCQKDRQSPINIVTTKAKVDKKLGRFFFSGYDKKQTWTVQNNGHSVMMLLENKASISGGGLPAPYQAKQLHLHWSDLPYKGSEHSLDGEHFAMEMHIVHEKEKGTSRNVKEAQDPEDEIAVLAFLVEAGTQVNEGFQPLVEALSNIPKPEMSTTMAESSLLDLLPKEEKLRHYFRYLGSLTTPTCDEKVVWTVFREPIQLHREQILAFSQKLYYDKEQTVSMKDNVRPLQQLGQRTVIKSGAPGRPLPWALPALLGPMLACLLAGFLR

The compound `CN(C)c1ccc(/C=C2/N=C(c3ccccc3)N(Nc3csc(Nc4ccc(S(N)(=O)=O)cc4)n3)C2=O)cc1` yielded an IC50 in [1] of 38.9 µM.

On to `CC(=O)NS(=O)(=O)c1ccc(N2C(=O)/C(=C\c3cn(C(C)=O)c4ccccc34)N=C2c2ccccc2)cc1`, for which the inhibitory constant (Ki) in [2] is above 10000 nM; in experiment [3] it was 1.47 µM.

Compound `C[C@@H]1OC[C@@](O)(NC(=O)c2ccc(S(N)(=O)=O)cc2)[C@H](O)[C@H]1O` came in with an IC50 in experiment [3] of 760 nM. This counts as sub-micromolar.

Consider `COC(=O)[C@H]1O[C@@H](NC(=O)c2ccc(S(N)(=O)=O)cc2)[C@H](O)[C@@H](O)[C@@H]1O`, for which the outcome in experiment [4] was Active.

For `NS(=O)(=O)c1ccc(C(=O)N[C@@H]2O[C@H](CO)[C@@H](O)[C@H](O)[C@@H]2O)cc1`, the outcome in experiment [4] was Active.

As for `NS(=O)(=O)c1ccc(Nc2nc(NN3C(=O)/C(=C\c4ccc(Cl)cc4)N=C3c3ccccc3)cs2)cc1`, in experiment [3], the affinity corresponds to a Ki of 0.0292 µM. The compound further yielded an IC50 in [1] above 150 µM.

`NS(=O)(=O)c1ccc(Nc2nc(NN3C(=O)/C(=C\c4ccccc4)N=C3c3ccccc3)cs2)cc1` showed an IC50 in [1] of 45.9 µM.

Turning to `COc1cc(/C=C2/N=C(c3ccccc3)N(c3ccc(S(N)(=O)=O)cc3)C2=O)cc(OC)c1OC`, in experiment [3], the Ki turned out to be 0.0682 µM.

In experiment [3], `O=Cc1ccccc1OCc1cn(CCCOc2ccc3ccc(=O)oc3c2)nn1` showed a Ki of 0.0609 µM. Also, the outcome in [5] and in experiment [6] was Active.

Consider `NS(=O)(=O)c1ccc(C/N=C/c2c(OCc3cn(CCCOc4ccc5ccc(=O)oc5c4)nn3)ccc3ccccc23)cc1`, for which the result in [5] and in experiment [6] was Active.

The compound `NS(=O)(=O)c1ccc(N2C(=O)/C(=C\c3ccccc3)N=C2c2ccccc2)cc1` gave an inhibition constant Ki in experiment [3] of 0.0587 µM.

Consider `NS(=O)(=O)c1ccc(NC(=O)Nc2ccc(/N=C3\C(=O)Nc4ccc(Cl)cc43)cc2)cc1`, for which the Activity is 11.26% in experiment [7], 7.28% in [9] and 2.47% in [11]. In experiment [3], this compound came in with a Ki of 7430 µM. For the same compound, the result in [8] and in [10] was Active.

Regarding `CC(=O)n1cc(/C=C2/N=C(c3ncccn3)N(c3ccc(S(N)(=O)=O)cc3)C2=O)c2ccccc21`, the Ki in [2] is above 10000 nM; in experiment [3] it was above 10 µM; in experiment [12] it was above 10000 nM; in [13], above 10000 nM.

Consider `COc1ccc(OC)c(/C=C2/N=C(c3ccccc3)N(c3ccc(S(N)(=O)=O)cc3)C2=O)c1`, for which the affinity in experiment [3], expressed as Ki, was 0.023 µM.

For `COc1ccc(C2=N/C(=C/c3ccc(O)cc3)C(=O)N2c2ccc(S(N)(=O)=O)cc2)cc1`, the inhibition constant (Ki) in experiment [2] is 6.9 nM; in experiment [3], 0.0124 µM; in experiment [12] it was 0.83 nM; in experiment [13], 95 nM. Also, half-maximal inhibition in [14] (IC50) was put at 140 nM.

In experiment [3], `NS(=O)(=O)c1ccc(-n2nnc(C(=O)O)c2-c2ccccn2)cc1` yielded an inhibitory constant (Ki) of 1.41 µM. This lies in the single-digit micromolar range.

The compound `NS(=O)(=O)c1ccc(-n2nnc(C(=O)N3N=C(c4ccccn4)CC3(O)C(F)(F)F)c2-c2ccc(F)cc2)cc1` (stereo not drawn) displayed an inhibition constant (Ki) in experiment [3] of 0.0007 µM.

Regarding `CC(=O)n1cc(/C=C2/N=C(c3ccccc3)N(c3ccc(S(N)(=O)=O)cc3)C2=O)c2ccccc21`, the figures for the Ki in experiment [2] and in [3] were 263 nM and 0.318 µM, respectively.

`CCN1C(=O)/C(=N\NC(=O)c2ccc(S(N)(=O)=O)cc2)c2ccccc21` displayed an inhibition constant (Ki) in experiment [3] of 0.0089 µM.

Take `NS(=O)(=O)c1ccc(C(=O)N[C@@H]2OC[C@@H](O)[C@H](O)[C@H]2O)cc1`: the result in experiment [4] was Active.
